Data set [1] has as its system tonic extensor spasm of the rear legs of male mice under maximum electric shock. The data set is described as follows: Anticonvulsant activity in mice (inhibition of tonic extensor spasm under maximum electric shock). As to conditions: Mus musculus, po, p.o., 10 mice/dose. The data set is classed as in vivo, male SPF mice (Chbb:NMRI). On the procedure: 1. Anticonvulsant activity in mice
The anticonvulsant activity was tested as the inhibition of the tonic extensor spasm of the rear legs of male mice under maximum electric shock.
The test animals were male SPF mice (Chbb:NMRI) weighing 20 to 26 g which, up to one hour before oral administration of the test compound, had access to standard feed and drinking water.
The test procedure was based on that of SWINYARD, BROWN and GOODMAN (J. Pharmacol. Exp. Ther. 106, 319 [1952]). The electrical shock equipment was manufactured in accordance with information provided by WOODBURY and DAVENPORT (Arch. int. Pharmacodyn. 92, 97 [1952]). The electrical stimuli were applied to the heads of the animals above the eyes using chamois-covered steel ball electrodes moistened with a 0.9% NaCl solution. The stimulus lasted 0.2 sec. using alternating current of 50 Hz and 50 mA. There was a […] and then a tonic stretching spasm of the extremities in the case of all the controls.
The substance to be tested was suspended in a 1% tylose slurry and was perorally administered in a volume of 0.1 ml/10 gm mouse to 10 mice/dose. […], and the ED50 values were determined as the dosages sufficient to protect 50% of the animals against the tonic stretching spasm of the rear extremities, either graphically or by the method of LITCHFIELD and WILCOXON (J. Pharmacol. Exp. Ther. 96, 99 [1949]).

Data set [2] can be described thus: Orienting acute toxicity in mice. To be noted: mouse, in vivo, po, observation period 7 days. On the procedure: The orienting acute toxicity of the compounds was determined after administering a dose to groups of 6 or 10 mice each with body weights between 10 and 26 gm (observation period: 7 days).
[3] abbreviates: 0.5 h, shock 30 minutes after administration, read-out: ED50, 30 minutes.
The mark [4] stands for this setting: 2.5 h, shock 150 minutes after administration, read-out: ED50, 150 minutes.
[5] abbreviates: 5 h, shock 300 minutes after administration, read-out: ED50, 300 minutes.

Molecules are shown by their SMILES. Read-outs that look alike come from different tables or passages of the source.

For the compound `N/C(=C1/Sc2ccccc2C1=O)c1ccccc1` [A, (E)-2-[(amino)phenylmethylene]-benzo[b]thiophen-3(2H)-one], the ED50 was 12.8 mg/kg in data set [1] (setting [3]), 37 mg/kg in data set [1] (setting [4]) and 46 mg/kg in data set [1] (setting [5]). In data set [2], this compound displayed an LD50 at 168 h of 2400 mg/kg.

Take `CN/C(=C1/Sc2ccccc2C1=O)c1ccccc1` [B, (E)-2-[(methylamino)phenylmethylene]-benzo[b]thiophen-3(2H)-one]: the values for the ED50 in data set [1] (setting [3]), in data set [1] (setting [4]) and in data set [1] (setting [5]) were 90 mg/kg, 38 mg/kg and 49 mg/kg, respectively. Also, in data set [2], the LD50 at 168 h was over 1000 mg/kg.

Turning to `N/C(=C1/Sc2ccccc2C1=O)c1ccccc1Cl` [C, (E)-2-[(amino)-(2-chloro-phenyl)methylene]-benzo[b]thiophen-3(2H)-one], the ED50 in data set [1] (setting [3]) came out at 7 mg/kg; in data set [1] (setting [4]), 4.4 mg/kg; in data set [1] (setting [5]), 5 mg/kg. The LD50 at 168 h in data set [2] lay within 500 to 1000 mg/kg.

As for `O=C1/C(=C(\NCCO)c2ccccc2)Sc2ccccc21` [D, (E)-2-{[(2-hydroxy-ethyl)amino]phenylmethylene}benzo[b]thiophen-3(2H)-one], the ED50 in data set [1] (setting [3]) was found to be 33 mg/kg; in data set [1] (setting [4]) it was 41 mg/kg; in data set [1] (setting [5]) it was 42.5 mg/kg. The compound further gave an LD50 at 168 h in data set [2] of over 1000 mg/kg.

As to `Cc1ccccc1/C(N)=C1\Sc2ccccc2C1=O` [E, (E)-2-[(amino)-(2-methyl-phenyl)methylene]-benzo[b]-thiophen-3(2H)-one], the ED50 turned out to be 22.8 mg/kg in data set [1] (setting [3]), 13.3 mg/kg in data set [1] (setting [4]) and 15.7 mg/kg in data set [1] (setting [5]). Further, the LD50 at 168 h in data set [2] is over 1000 mg/kg.

As for `CCN/C(=C1/Sc2ccccc2C1=O)c1ccccc1` [F, (E)-2-[(ethylamino)phenylmethylene]-benzo[b]thiophen-3(2H)-one], the ED50 amounted to 22.5 mg/kg in data set [1] (setting [3]), 54.6 mg/kg in data set [1] (setting [4]) and 79 mg/kg in data set [1] (setting [5]). In data set [2], this compound came in with an LD50 at 168 h of over 1000 mg/kg.

For the origin of these results see patent US4288437A, “2-[(Amino)-aryl-methylene]-benzo[b]thiophen-3(2H)-ones” (Boehringer Ingelheim GmbH, priority 1979, dated 1981).
